Experimental data published in PubChem BioAssay (NCI).
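Compound exposure: 48 hours, 5 concentrations, 96-well plates. The concentration for full growth arrest is given as TGI.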

Key:
Assay in all cases: DTP human tumour cell line panel, 48 h
[1] = system: HS 578T breast
[2] = system: UACC-62 melanoma
[3] = system: NCI-H522 lung
[4] = system: SR leukemia
[5] = system: EKVX NSCLC
[6] = system: ACHN renal
[7] = system: SNB-19 CNS
[8] = system: MOLT-4 leukemia
[9] = system: MCF7 breast
[10] = system: MALME-3M melanoma
[11] = system: HCT-15 colon
[12] = system: IGROV1 ovarian
[13] = system: OVCAR-3 ovarian

| Structure (SMILES) | TGI [1] | TGI [2] | TGI [3] | TGI [4] | TGI [5] | TGI [6] | TGI [7] | TGI [8] | TGI [9] | TGI [10] | TGI [11] | TGI [12] | TGI [13] |
| --- | --- | --- | --- | --- | --- | --- | --- | --- | --- | --- | --- | --- | --- |
| COc1cc(O)c2c(=O)cc(-c3ccc(O)cc3O)oc2c1CC=C(C)C | > 100 µM | 39.3 µM | 33.6 µM | 26.3 µM | 73.6 µM | 30.4 µM | 44.5 µM | 83.2 µM | 75.7 µM | 33 µM | 25.5 µM | 39.6 µM | – |
| CNC1=C(C)C(=O)C(=O)C([C@H](C)CCC=C(C)C)=C1O | > 91.8 µM | > 72.3 µM | 20.4 µM | 71 µM | > 100 µM | 39.4 µM | > 100 µM | > 48.5 µM | > 100 µM | > 68.6 µM | > 100 µM | > 76.1 µM | > 100 µM |
| O=C1/C(=C/c2ccccc2O)N=C(c2ccccc2)N1C1Nc2cc3c(cc2S1)NC(N1C(=O)/C(=C/c2ccccc2O)N=C1c1ccccc1)S3 (stereo not given) | > 100 µM | – | > 100 µM | > 100 µM | > 100 µM | > 100 µM | – | > 100 µM | > 100 µM | – | > 100 µM | > 100 µM | > 100 µM |
| CCc1c2c([nH]c(=S)c1C#N)CCC2 | > 100 µM | > 100 µM | > 100 µM | > 100 µM | 75.6 µM | > 100 µM | > 100 µM | > 100 µM | > 100 µM | > 100 µM | > 100 µM | > 100 µM | > 100 µM |
| Cc1csc2c(=O)n(C3OC(CO)C(O)C3O)c(=O)[nH]c12 (stereo not given) | > 100 µM | – | > 100 µM | > 100 µM | > 100 µM | > 100 µM | > 100 µM | > 100 µM | > 100 µM | > 100 µM | – | > 100 µM | > 100 µM |
| O=C1CCC2C(O)c3cc4c(cc3C(c3ccc5c(c3)OCO5)N12)OCO4 (stereo not given) | 81.7 µM | > 100 µM | > 100 µM | > 100 µM | > 100 µM | > 100 µM | > 100 µM | > 100 µM | > 100 µM | > 100 µM | > 100 µM | > 100 µM | > 100 µM |
| [N-]=[N+]=Nc1ccccc1C(=O)N1C(=O)c2ccccc2C(=O)N(C(=O)c2ccccc2N=[N+]=[N-])c2ccccc21 | > 100 µM | > 100 µM | > 100 µM | > 100 µM | > 100 µM | > 100 µM | > 100 µM | 50.7 µM | > 100 µM | > 100 µM | > 100 µM | > 100 µM | > 100 µM |
| O=C1c2cc(Cl)ccc2-n2cnnc2C2CSCN12 (stereo not given) | > 100 µM | > 100 µM | > 100 µM | > 100 µM | > 100 µM | > 100 µM | > 100 µM | > 100 µM | > 100 µM | > 100 µM | > 100 µM | > 100 µM | > 100 µM |
| C=CCNC(=O)NC(=O)CSC1=NNC2(C(=O)N1)c1ccccc1-c1ccccc12 | > 10 µM | > 10 µM | > 10 µM | > 10 µM | > 10 µM | > 10 µM | > 10 µM | > 10 µM | > 10 µM | > 10 µM | > 10 µM | > 10 µM | – |
| Cc1csc2[n+]1C(=O)/C(=C\c1ccc([N+](=O)[O-])cc1)S2 | 74.3 µM | 41 µM | – | > 100 µM | – | 65.7 µM | 87.3 µM | > 100 µM | > 100 µM | – | – | – | 33.1 µM |
| CCOC(CN(C)C(=O)Nc1cccc2ccccc12)OCC | > 10 µM | > 10 µM | > 10 µM | > 10 µM | > 10 µM | > 10 µM | > 10 µM | > 10 µM | > 10 µM | > 10 µM | > 10 µM | > 10 µM | > 10 µM |
| Cc1ccc2c(c1)[nH]c(=S)n2/C=C1\C(=O)Oc2ccccc2C1=O | > 100 µM | > 100 µM | > 100 µM | > 100 µM | – | > 100 µM | > 100 µM | > 100 µM | > 100 µM | > 100 µM | > 100 µM | > 100 µM | > 100 µM |
| COC(=O)/C=C(/C)n1nc2ccccc2n1 | > 100 µM | > 100 µM | > 100 µM | > 100 µM | > 100 µM | > 100 µM | > 100 µM | > 100 µM | > 100 µM | > 100 µM | > 100 µM | > 100 µM | > 100 µM |
| O=C1C(Cl)C2(CC(/C=C/c3ccccc3Cl)=NN2c2cccc(S(=O)(=O)O)c2)N1c1nc2ccccc2s1 (stereo not given) | > 100 µM | > 100 µM | 26.9 µM | 25.3 µM | > 100 µM | > 100 µM | > 100 µM | > 100 µM | > 100 µM | > 100 µM | > 100 µM | > 100 µM | – |
| CCOP(=O)(OCC)/C(C#N)=C/c1ncc[nH]1 | > 100 µM | > 100 µM | > 100 µM | > 100 µM | > 100 µM | > 100 µM | > 100 µM | > 100 µM | > 100 µM | > 100 µM | – | – | > 100 µM |
| C=CCN1C(=O)/C(=C/c2ccc(OC)cc2)N=C1SC/C=C/C | > 100 µM | > 100 µM | > 100 µM | 63.8 µM | > 100 µM | > 100 µM | > 100 µM | 66.7 µM | > 100 µM | > 100 µM | > 100 µM | > 100 µM | > 100 µM |
| C=CCNC1=C2C[C@@H](C)C[C@@H](OC)[C@H](OC(=O)CCN)[C@H](C)/C=C(\C)[C@@H](OC(N)=O)[C@H](OC)/C=C\C=C(/C)C(=O)NC(=CC1=O)C2=O | 52.9 µM | 12.3 µM | 20.2 µM | > 100 µM | 36.4 µM | 25.2 µM | 20.9 µM | 12.7 µM | 7.71 µM | 14.1 µM | 23.7 µM | 19.6 µM | 6.56 µM |
| Clc1ccc(NCc2nnc(CCCCCCCCc3nnc(CNc4ccc(Cl)cc4)o3)o2)cc1 | > 100 µM | > 100 µM | > 100 µM | > 100 µM | > 100 µM | > 100 µM | > 100 µM | > 100 µM | > 100 µM | > 100 µM | > 100 µM | – | > 100 µM |
| O=C(Nc1ccc(Cl)cc1)NS(=O)(=O)c1coc2cc(F)ccc2c1=O | > 100 µM | > 100 µM | > 100 µM | > 100 µM | > 100 µM | > 100 µM | > 100 µM | > 100 µM | > 100 µM | > 100 µM | > 100 µM | > 100 µM | > 100 µM |
| CC(=O)NC1C(OCc2ccccc2)OC(CO)C(O)C1OC(C)C(=O)NC(C(=O)N[C@@H](CCC(=O)NCCNCCNc1c2ccccc2nc2cccc([N+](=O)[O-])c12)C(N)=O)C(C)C (stereo not given in full) | > 100 µM | – | – | 5.24 µM | – | 73.5 µM | > 100 µM | 53.2 µM | 41.5 µM | > 100 µM | > 100 µM | > 100 µM | > 100 µM |
| CC[C@]1(Cc2ccc(OC)c(OC)c2)C=[N+]([O-])O[C@H](OC2CCCC2(c2ccccc2)c2ccccc2)[C@@H]1OC(=O)c1ccccc1 (stereo not given in full) | > 100 µM | > 38.6 µM | > 100 µM | > 100 µM | > 23.8 µM | > 34.8 µM | > 100 µM | > 21.9 µM | > 24.9 µM | – | > 100 µM | > 100 µM | 13.7 µM |
| COc1ccc(Nc2nnc(-c3nsc4ccccc34)s2)cc1 | > 100 µM | > 100 µM | – | > 100 µM | > 100 µM | > 100 µM | > 100 µM | > 100 µM | > 100 µM | – | > 100 µM | > 100 µM | > 100 µM |
| CC(=O)C(=C(c1ccccc1)c1ccccc1)c1ccccc1 | > 100 µM | > 100 µM | > 100 µM | > 100 µM | 80.2 µM | > 100 µM | > 100 µM | > 100 µM | > 100 µM | > 100 µM | > 100 µM | – | > 100 µM |
| CCOC(=O)/C(C#N)=C\c1ccc(N(CCC(=O)O)CCC(=O)O)c(I)c1 | > 10 µM | > 10 µM | > 10 µM | > 10 µM | > 10 µM | > 10 µM | > 10 µM | > 10 µM | > 10 µM | > 10 µM | > 10 µM | > 10 µM | – |
| Cn1c(=O)c(Br)c(C=O)n(CCO[N+](=O)[O-])c1=O | > 100 µM | 4.9 µM | – | 5.48 µM | 7.07 µM | 13.2 µM | 68.4 µM | 5.8 µM | 6.17 µM | – | 20 µM | – | – |
| O=S1(=O)N=C(SCc2ccccc2)N(c2ccccc2)c2ccncc21 | 83.4 µM | > 100 µM | 56.3 µM | > 100 µM | > 100 µM | > 100 µM | > 100 µM | > 100 µM | > 100 µM | > 100 µM | > 100 µM | – | > 100 µM |
| CCCCCCCCCCCCCCCCCCNC(=O)C(N)Cc1ccc(OCc2ccccc2)cn1 (stereo not given) | 51.1 µM | 32.2 µM | 38.5 µM | – | 46.8 µM | 56.4 µM | 42.5 µM | 55 µM | 35.8 µM | 42.9 µM | 37.3 µM | 32.6 µM | 49.6 µM |
